Test results from patent publication US7678787B2, “Pyrrolobenzodiazepine pyridine carboxamides and derivatives as follicle-stimulating hormone receptor antagonists” (Wyeth, priority 2005, dated 2010).
“And” between values parts separate entries of the source, which are not always exact repeats. Equal values may be shown once.

Tests used:
human FSH receptor = biological target: T1, human FSH receptor (Homo sapiens, UniProt P23945); test: FSH receptor-dependent CRE-luciferase reporter gene assay (CHO FSH-R 6CRE-Luc cells); type: cell-based; conditions: dose-response format in presence of EC50 of purified human FSH; * n=3, ** n=2 averages
T1 construct: host or cells: CHO-K1 (CHO FSH-R 6CRE-Luc, 1D7 cells)
T1 sequence (P23945 18-695): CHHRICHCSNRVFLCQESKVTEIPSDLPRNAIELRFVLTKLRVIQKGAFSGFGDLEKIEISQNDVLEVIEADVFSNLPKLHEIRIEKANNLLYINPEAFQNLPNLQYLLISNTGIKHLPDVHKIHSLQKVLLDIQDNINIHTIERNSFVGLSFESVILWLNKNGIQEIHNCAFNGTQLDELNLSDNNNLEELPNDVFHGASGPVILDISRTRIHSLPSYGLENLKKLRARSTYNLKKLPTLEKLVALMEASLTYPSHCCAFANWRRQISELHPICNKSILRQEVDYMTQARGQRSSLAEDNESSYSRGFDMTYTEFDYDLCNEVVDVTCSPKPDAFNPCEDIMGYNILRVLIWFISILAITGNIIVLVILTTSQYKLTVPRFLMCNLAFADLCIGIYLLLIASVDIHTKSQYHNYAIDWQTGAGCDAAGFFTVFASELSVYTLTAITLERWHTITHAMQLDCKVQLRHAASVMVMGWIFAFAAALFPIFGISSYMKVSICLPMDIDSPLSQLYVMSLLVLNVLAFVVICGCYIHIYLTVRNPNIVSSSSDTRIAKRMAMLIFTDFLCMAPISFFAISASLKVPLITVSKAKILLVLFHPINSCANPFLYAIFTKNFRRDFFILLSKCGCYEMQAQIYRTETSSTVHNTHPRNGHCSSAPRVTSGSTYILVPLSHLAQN
Excerpt: FOLLICLE-STIMULATING HORMONE RECEPTOR-DEPENDENT CRE-LUCIFERASE REPORTER GENE ASSAY FOR THE IDENTIFICATION OF FOLLICLE-STIMULATING HORMONE (FSH) ANTAGONISTS
A Chinese hamster ovarian cell line that stably produces the human FSH receptor and a luciferase reporter gene regulated by cAMP response elements was used to identify and determine the relative potencies of human FSH receptor antagonists. See for example, Kelton, C. A., et al. Mol. Cell. Endocrinol. 89:141-151 (1992), Tilly, J. L., et al. Endocrinology 131:799-806(1992), and George, S. E., et al. J. Biomol. Screening 2:235-240 (1997).
Compound Vehicle: Stock compounds were solubilized in an appropriate vehicle, e.g., phosphate buffered saline (PBS) or dimethyl sulfoxide (DMSO), at 30 mM. The compounds subsequently were diluted in DMSO to working dilutions of 1 and 20 or 30 mM for 2-dose testing format and 1 μM-10 mM for dose-response format. The DMSO dilutions were diluted 500-fold in sterile growth medium [D-MEM/F-12 (GIBCO/BRL; Grand Island, N.Y.) containing 15 mM HEPES, 2 mM l-glutamine, pyridoxine hydrochloride, phenol red and 5% FETALCLONE® II (HyClone Laboratories, Inc; Logan, Utah), 0.2% DMSO, 100 units penicillin G/ml, and 100 μg streptomycin sulfate/ml (GIBCO/BRL)]. The concentration of the vehicle in each of the compound dilutions was the same.
Positive Controls: Purified human FSH (>98%) was purchased from Cortex Biochem, Inc. (San Leandro, Calif.) and 3-[(2S*,5R*)-5-{[2-(1H-Indol-3-yl)-ethylcarbamoyl]-methyl}-4-oxo-2-(5-phenylethynyl-thiophen-2-yl)-thiazolidin-3-yl]-benzamide (an FSH-R thiazolidinone antagonist) was prepared by processes described by R. A. Scheuerman et al. in U.S. Pat. No. 6,426,357 (Affymax).
The CHO FSH-R 6CRE-Luc cells (1D7 cells) were obtained from Affymax (Palo Alto, Calif.). These Chinese hamster ovary cells (CHO-K1) were engineered genetically to stably express the recombinant human FSH receptor gene and a luciferase reporter gene under the regulation of 6 copies of a cAMP response element. The cells were plated one day prior to treatment into 96-well white opaque plates at a density of 50,000 cells/100 μl/well in growth medium. On the day of treatment, the growth medium was removed from the wells by aspiration and 50 μl of fresh growth medium was added to each well. The cells were incubated at 37° C. in a humidified incubator with 5% CO2/95% air.
The treated cells were incubated for 4 hours at 37° C. in a humidified incubator with 5% CO2/95% air. At the end of the incubation period, luciferase activity was measured by chemiluminescence using a commercially available kit (LucScreen, Tropix, Inc., Bedford, Mass.) according to the manufacturer's specifications, except that Buffer 1 and Buffer 2 were mixed together in equal proportion prior to the addition of 100 μl of the combined reagents to each well. Chemiluminescence was detected using a luminometer (EG & G Berthold Microlumat LB 96 P, Wallac, Gaithersburg, Md.) with chemiluminescence measured for 1 sec/well. Background luminescence was measured for each well prior to the addition of the LucScreen reagent.
In the 96-well 2-dose format, each compound was tested in duplicate at each dose. […] One plate was used to test a maximum of 22 compounds.
The EC50 of purified human FSH alone was tested in triplicate with each test compound. The doses chosen to test each compound were extrapolated from the initial 2-dose screening process. Along with the test compounds, purified human FSH also was tested in a dose response (0.03, 0.1, 0.3, 1, 3, 10, and 30 ng/ml) for a positive control and quality control. One plate was used for 3 test compounds and the FSH positive control.
Luciferase activity is expressed as relative light units/sec/well. Luciferase activity in antagonist was compared to the appropriate negative and positive controls. For 2-dose testing, results are reported as luciferase activity and are expressed as percent inhibition of the response obtained from the EC50 of FSH.

hFSH-R = biological target: T2, hFSH-R (Homo sapiens, UniProt P23945); test: cAMP accumulation (RIA) in CHO-3D2 cells (hFSH-R), hFSH-induced; type: cell-based; conditions: inhibition of cAMP accumulation induced by hFSH at EC20, CHO-3D2 cells
T2 construct: expressed in transfected cells; host or cells: CHO-3D2 cells (CHO-K1 parental line)
T2 sequence (P23945 18-695): T1 sequence (P23945 18-695)
Method: IN VITRO BIO-ASSAY OF AGONISTS AND ANTAGONISTS TO THE FSH RECEPTOR. SELECTIVITY AND DEPENDENCY OF AGONISTS AND ANTAGONISTS TO THE FSH RECEPTOR
Compound Vehicle: Stock compounds were solubilized in 100% DMSO (Sigma-Aldrich Chemical Co., St. Louis, Mo.) at a concentration of 30 mM. The compounds subsequently were diluted in sterile assay medium consisting of Opti-MEM® I (Invitrogen/Life Technologies, Carlsbad, Calif.) with 0.1% (w/v) BSA (Sigma-Aldrich) prior to use in the bio-assay. The final concentration of DMSO in the assay was 0.1%.
Plated cells are then incubated at 37° C. in a humidified 5% CO2/95% air atmosphere.
Assay: On the day of the assay, cells were washed three times with 100 μl/well of assay medium consisting of Opti-MEM® I (Invitrogen/Life Technologies) with 0.1% (w/v) BSA (Sigma-Aldrich). Medium was removed and 100 μl of assay medium was added to each well. Plates were incubated for an additional 30 minutes at 37° C. […] Reactions were terminated by the addition of 50 μl of 0.2N hydrochloric acid to each well and cAMP-accumulation was measured by radioimmunoassay (RIA) using a commercially available kit (Amersham Biosciences, Piscataway, N.J.).
All test compounds were evaluated in a dose-response paradigm ranging from 0.01 to 30 μM. Controls and test compounds were evaluated in quadruplicate in a 96-well format.
Along with the test compounds, FSH was run also as a postive control in the agonist mode using concentrations ranging from 0.1-1000 ng/ml.
Data were analyzed by one-way analysis of variance and significant differences between treatments and control determined by Least Significant Difference test.
Test compounds were compared to the effect of purified human FSH.

SMILES | IC50 (human FSH receptor) [nM] | IC50 (hFSH-R) [nM] | melting point
CC(O)c1ccccc1-c1ccc(C(=O)N2Cc3ccc(C(=O)NCc4cccnc4)n3Cc3ccccc32)cc1 (racemic) [Example 52] | 116 | 100 | 122 to 126 °C and 118 °C and 122 °C
COc1cc(C(=O)N2Cc3ccc(C(=O)NCc4cccnc4)n3Cc3ccccc32)ccc1-c1ccccc1C [Example 1] | 1000 | 200 | 165 to 167 °C
Cc1ccccc1-c1ccc(C(=O)N2Cc3ccc(C(=O)NCc4cccnc4)n3Cc3ccccc32)cc1C [Example 3] | 920 | 80 | 148 to 150 °C
Cc1ccccc1-c1ccc(C(=O)N2Cc3ccc(C(=O)NCc4ccc[n+]([O-])c4)n3Cc3ccccc32)cc1C [Example 4] | 950 | 800 | 170 to 173 °C
COc1ccccc1-c1ccc(C(=O)N2Cc3ccc(C(=O)NCc4cncc(Br)c4)n3Cc3ccccc32)cc1 [Example 6, N-[(5-BROMOPYRIDIN-3-YL)METHYLL]-10-[(2′-METHOXY-1,1′-BIPHENYL-4-YL)CARBONYL]-10,11-DIHYDRO-5H-PYRROLO[2,1-C][1,4]BENZODIAZEPINE-3-CARBOXAMIDE] | 8900 | 5400 | 180 to 184 °C
N#Cc1ccccc1-c1ccc(C(=O)N2Cc3ccc(C(=O)NCc4cccnc4)n3Cc3ccccc32)cc1 [Example 30] | 1100 | 270 | 
CC(C)c1ccccc1-c1ccc(C(=O)N2Cc3ccc(C(=O)NCc4cccnc4)n3Cc3ccccc32)cc1 [Example 31] | 940 | 330 | 
COC(=O)Cc1ccccc1-c1ccc(C(=O)N2Cc3ccc(C(=O)NCc4cccnc4)n3Cc3ccccc32)cc1 [Example 32] | 156 | 20 | 
CCOc1ccccc1-c1ccc(C(=O)N2Cc3ccc(C(=O)NCc4cccnc4)n3Cc3ccccc32)cc1 [Example 33] | 1450 | 900 | 
O=C(NCc1cccnc1)c1ccc2n1Cc1ccccc1N(C(=O)c1ccc(-c3ccccc3O)cc1)C2 [Example 34] | 1550 | 590 | 
CC(C)C(=O)c1ccccc1-c1ccc(C(=O)N2Cc3ccc(C(=O)NCc4cccnc4)n3Cc3ccccc32)cc1 [Example 36] | 1860 | 430 | 
CC(C)C(O)c1ccccc1-c1ccc(C(=O)N2Cc3ccc(C(=O)NCc4cccnc4)n3Cc3ccccc32)cc1 (stereo not shown) [Example 37] | 1640 | 490 | 
NC(=O)Cc1ccccc1-c1ccc(C(=O)N2Cc3ccc(C(=O)NCc4cccnc4)n3Cc3ccccc32)cc1 [Example 38] | 78 | 90 | 
CNC(=O)Cc1ccccc1-c1ccc(C(=O)N2Cc3ccc(C(=O)NCc4cccnc4)n3Cc3ccccc32)cc1 [Example 39] | 414 | 250 | 
CN(C)C(=O)Cc1ccccc1-c1ccc(C(=O)N2Cc3ccc(C(=O)NCc4cccnc4)n3Cc3ccccc32)cc1 [Example 40] | 921 | 320 | 
Cc1cc(C(=O)N2Cc3ccc(C(=O)NCc4cccnc4)n3Cc3ccccc32)ccc1-c1ccccc1C(C)O (stereo not shown) [Example 50] | 1000 | 300 | 
CCNC(=O)Cc1ccccc1-c1ccc(C(=O)N2Cc3ccc(C(=O)NCc4cccnc4)n3Cc3ccccc32)cc1 [Example 66] | 3670 | 810 | 
CC(C)(C)c1ccc(C(=O)N2Cc3ccc(C(=O)NCc4cccnc4)n3Cc3ccccc32)cc1 [Example 80] | 4960 | 1100 | 
CN(C)c1ccc(C(=O)N2Cc3ccc(C(=O)NCc4cccnc4)n3Cc3ccccc32)cc1 [Example 84] | 5820 | 1200 | 
O=C(NCc1cccnc1)c1ccc2n1Cc1ccccc1N(C(=O)c1ccc(OC(F)(F)F)cc1)C2 [Example 85] | 6440 | 1100 | 
CCCc1ccc(C(=O)N2Cc3ccc(C(=O)NCc4cccnc4)n3Cc3ccccc32)cc1 [Example 98] | 4960 | 400 | 
CCN(CC)c1ccc(C(=O)N2Cc3ccc(C(=O)NCc4cccnc4)n3Cc3ccccc32)cc1 [Example 102] | 5820 | 800 | 
Cc1cc(C(=O)N2Cc3ccc(C(=O)NCc4cccnc4)n3Cc3ccccc32)ccc1-c1cccs1 [Example 104] | 3000 | 400 | 
O=C(NCc1cccnc1)c1ccc2n1Cc1ccccc1N(C(=O)c1ccc(NCc3ccccc3)nc1)C2 [Example 119] | 10500 | 6700 | 
COc1ccc(CNc2ccc(C(=O)N3Cc4ccc(C(=O)NCc5cccnc5)n4Cc4ccccc43)cn2)cc1 [Example 122] | 36500 | > 30000 | 
